From doi:10.1101/2025.10.23.684218v2, “Development of a dual chemical probe for the USP16 and HDAC6 zinc-finger ubiquitin-binding domain” (biorxiv, 2025)
Like-named read-outs stand apart in the source and are kept apart here.

Legend:
Test in all cases: biochemical
Parameters in all cases: SPR, steady-state binding to immobilised biotinylated UBD proteins
USP49 = target: T1, USP49 (Homo sapiens, UniProt Q70CQ1)
T1 construct: UBD, residues 1-115
T1 sequence (Q70CQ1 1-688): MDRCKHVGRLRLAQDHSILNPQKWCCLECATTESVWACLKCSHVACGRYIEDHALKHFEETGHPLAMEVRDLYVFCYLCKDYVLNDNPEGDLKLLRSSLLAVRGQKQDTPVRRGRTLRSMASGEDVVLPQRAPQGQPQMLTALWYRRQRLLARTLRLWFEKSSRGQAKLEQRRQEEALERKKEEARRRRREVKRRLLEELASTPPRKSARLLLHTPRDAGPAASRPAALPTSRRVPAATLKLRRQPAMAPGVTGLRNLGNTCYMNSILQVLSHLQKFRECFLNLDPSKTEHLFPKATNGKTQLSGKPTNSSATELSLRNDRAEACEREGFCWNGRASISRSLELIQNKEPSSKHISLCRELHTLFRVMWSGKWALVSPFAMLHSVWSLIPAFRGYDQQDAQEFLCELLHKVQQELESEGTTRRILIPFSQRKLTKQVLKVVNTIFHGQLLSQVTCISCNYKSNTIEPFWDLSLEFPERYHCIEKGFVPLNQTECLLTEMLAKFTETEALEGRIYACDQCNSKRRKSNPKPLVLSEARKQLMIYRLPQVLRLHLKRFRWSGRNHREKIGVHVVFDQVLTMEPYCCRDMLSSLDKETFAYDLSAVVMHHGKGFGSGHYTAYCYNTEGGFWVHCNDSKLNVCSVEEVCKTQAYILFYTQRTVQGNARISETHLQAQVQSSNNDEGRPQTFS

BRAP = target: T2, BRAP (Homo sapiens, UniProt Q7Z569)
T2 construct: UBD, residues 304-390
T2 sequence (Q7Z569 1-592): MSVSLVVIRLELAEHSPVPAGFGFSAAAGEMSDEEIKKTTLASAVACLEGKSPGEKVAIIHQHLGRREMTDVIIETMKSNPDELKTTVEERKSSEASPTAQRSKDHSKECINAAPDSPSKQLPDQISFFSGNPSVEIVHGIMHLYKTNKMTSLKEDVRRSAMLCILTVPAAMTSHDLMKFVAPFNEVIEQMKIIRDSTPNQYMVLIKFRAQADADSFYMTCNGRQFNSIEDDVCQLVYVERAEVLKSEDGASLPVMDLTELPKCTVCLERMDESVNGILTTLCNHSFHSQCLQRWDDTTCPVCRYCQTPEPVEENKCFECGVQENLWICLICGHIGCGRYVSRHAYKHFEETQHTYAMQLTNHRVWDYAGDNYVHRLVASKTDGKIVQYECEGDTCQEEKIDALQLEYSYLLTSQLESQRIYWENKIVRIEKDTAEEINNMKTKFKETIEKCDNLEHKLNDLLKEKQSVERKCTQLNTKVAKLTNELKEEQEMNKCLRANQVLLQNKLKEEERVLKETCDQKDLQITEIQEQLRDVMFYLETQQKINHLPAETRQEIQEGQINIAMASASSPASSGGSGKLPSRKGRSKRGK

USP3 = target: T3, USP3 (Homo sapiens, UniProt Q9Y6I4)
T3 sequence (Q9Y6I4 1-520): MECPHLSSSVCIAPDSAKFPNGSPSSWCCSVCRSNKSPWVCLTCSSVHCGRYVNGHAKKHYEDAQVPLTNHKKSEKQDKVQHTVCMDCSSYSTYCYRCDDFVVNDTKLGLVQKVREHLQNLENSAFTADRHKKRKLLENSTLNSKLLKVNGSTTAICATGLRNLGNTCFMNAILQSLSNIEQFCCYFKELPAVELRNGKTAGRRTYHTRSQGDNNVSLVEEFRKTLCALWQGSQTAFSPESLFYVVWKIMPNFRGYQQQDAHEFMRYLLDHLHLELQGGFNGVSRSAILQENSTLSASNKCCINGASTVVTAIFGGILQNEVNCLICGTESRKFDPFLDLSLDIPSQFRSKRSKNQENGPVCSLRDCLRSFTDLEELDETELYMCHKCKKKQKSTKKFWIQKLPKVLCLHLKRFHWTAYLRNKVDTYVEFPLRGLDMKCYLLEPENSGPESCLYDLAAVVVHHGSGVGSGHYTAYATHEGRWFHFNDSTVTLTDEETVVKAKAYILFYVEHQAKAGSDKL

USP5 = target: T4, USP5 (Homo sapiens, UniProt P45974)
T4 construct: UBD, residues 171-290
T4 sequence (P45974 1-858): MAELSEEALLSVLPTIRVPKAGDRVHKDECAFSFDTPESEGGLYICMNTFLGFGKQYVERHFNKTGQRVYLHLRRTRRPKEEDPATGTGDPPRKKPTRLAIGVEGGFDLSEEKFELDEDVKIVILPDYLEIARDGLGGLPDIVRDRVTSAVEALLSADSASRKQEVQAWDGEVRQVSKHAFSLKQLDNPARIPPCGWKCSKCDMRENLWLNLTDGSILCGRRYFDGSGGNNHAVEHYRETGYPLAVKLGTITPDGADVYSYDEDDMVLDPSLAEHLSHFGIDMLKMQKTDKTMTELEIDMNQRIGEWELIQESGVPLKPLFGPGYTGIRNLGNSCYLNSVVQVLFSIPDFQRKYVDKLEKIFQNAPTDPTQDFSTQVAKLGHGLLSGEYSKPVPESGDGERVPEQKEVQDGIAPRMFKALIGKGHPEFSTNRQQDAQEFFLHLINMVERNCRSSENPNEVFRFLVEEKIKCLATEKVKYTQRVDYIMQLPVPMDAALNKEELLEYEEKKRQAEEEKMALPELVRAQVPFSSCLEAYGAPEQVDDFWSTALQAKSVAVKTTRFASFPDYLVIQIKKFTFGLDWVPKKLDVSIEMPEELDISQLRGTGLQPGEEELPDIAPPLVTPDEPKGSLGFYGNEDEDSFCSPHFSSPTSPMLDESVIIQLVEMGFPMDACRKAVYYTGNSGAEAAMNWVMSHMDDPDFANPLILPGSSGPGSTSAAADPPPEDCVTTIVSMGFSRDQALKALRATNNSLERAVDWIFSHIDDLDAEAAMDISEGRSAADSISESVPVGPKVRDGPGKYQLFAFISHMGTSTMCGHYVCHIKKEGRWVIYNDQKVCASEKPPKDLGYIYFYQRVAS

[1] = read-out: Probe KD (nM) SGC-UBD1031
[2] = read-out: Negative Control KD (nM) SGC-UBD1031N

Row | Kd (USP49; [1]) | Kd (BRAP; [1]) | Kd (USP3; [1]) | Kd (USP5; [1]) | Kd (USP49; [2]) | Kd (BRAP; [2]) | Kd (USP3; [2]) | Kd (USP5; [2]) | Compound
1 | 7500 ± 870 nM | > 10000 nM | > 10000 nM | 2600 ± 1400 nM |  |  |  |  | C[C@H](NC(=O)Cn1c(CCC(=O)O)nc2c(Cl)cccc2c1=O)c1c(F)cccc1F [compound 15, (S)-3-(8-chloro-3-(2-((1-(2,6-difluorophenyl)ethyl)amino)-2-oxoethyl)-4-oxo-3,4-dihydroquinazolin-2-yl)propanoic acid]
2 |  |  |  |  | 6700 ± 2100 nM | > 10000 nM | 8700 ± 1800 nM | > 10000 nM | C[C@@H](NC(=O)Cn1c(CCC(=O)O)nc2c(Cl)cccc2c1=O)c1c(F)cccc1F [compound 16, (R)-3-(8-chloro-3-(2-((1-(2,6-difluorophenyl)ethyl)amino)-2-oxoethyl)-4-oxo-3,4-dihydroquinazolin-2-yl)propanoic acid]
